# Active and inactive are the calls of the source. Unless noted, the rule behind the calls is not given here.
# Experiments:
# [1] = molecular target: T1, Sphingosine 1-phosphate receptor 4 (Homo sapiens, UniProt O95977); assay: Late-stage fluorescence-based dose-response cell-based counterscreen assay to identify agonists of the Sphingosine 1-Phosphate Receptor 4 (S1P4): inhibition by S1P4-selective antagonist control.; assay type: functional
# T1 sequence (O95977 whole entry): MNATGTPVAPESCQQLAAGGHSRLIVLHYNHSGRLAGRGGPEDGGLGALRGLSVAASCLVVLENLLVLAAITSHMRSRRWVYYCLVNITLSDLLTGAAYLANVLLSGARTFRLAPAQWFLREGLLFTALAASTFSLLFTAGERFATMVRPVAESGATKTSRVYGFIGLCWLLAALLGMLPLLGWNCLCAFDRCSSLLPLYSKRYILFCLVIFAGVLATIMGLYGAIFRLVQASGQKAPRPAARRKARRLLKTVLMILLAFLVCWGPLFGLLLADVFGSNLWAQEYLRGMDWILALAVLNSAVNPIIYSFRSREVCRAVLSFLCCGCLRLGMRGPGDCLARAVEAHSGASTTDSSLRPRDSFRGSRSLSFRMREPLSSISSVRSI
# [2] = molecular target: T2, Sphingosine 1-phosphate receptor 2 (Homo sapiens, UniProt O95136); assay: activation of human S1P2 receptor – cell-based, fluorescence, set 2, counter-screen for S1P4 agonist project, late-stage follow-up (AID 504873); assay type: functional
# [3] = cell viability after agonist treatment – luminescence, dose response, set 2, assay provider, cytotoxicity control for S1P4 agonist project, late-stage follow-up (AID 504875); assay type: functional
# [4] = molecular target: T2, Sphingosine 1-phosphate receptor 2; assay: Late-stage fluorescence-based dose-response cell-based counterscreen assay to identify agonists of the Sphingosine 1-Phosphate Receptor 4 (S1P4): Sphingosine 1-Phosphate Receptor 2 (S1P2) antagonist assay Set 2.; assay type: functional
# [5] = molecular target: T1, Sphingosine 1-phosphate receptor 4; assay: (§1) Late-stage fluorescence-based dose-response cell-based counterscreen assay to identify agonists of the Sphingosine 1-Phosphate Receptor 4 (S1P4): inhibition by S1P4-selective antagonist […].; assay type: functional
# [6] = molecular target: T1, Sphingosine 1-phosphate receptor 4; assay: Late-stage fluorescence-based dose-response cell-based counterscreen assay to identify agonists of the Sphingosine 1-Phosphate Receptor 4 (S1P4): inhibition by S1P4-selective antagonist 100 nM.; assay type: functional
# [7] = molecular target: Sphingosine 1-phosphate receptor 5 (Homo sapiens, UniProt Q9H228); assay: Late-stage fluorescence-based dose-response cell-based counterscreen assay to identify agonists of the Sphingosine 1-Phosphate Receptor 4 (S1P4): Sphingosine 1-Phosphate Receptor 5 (S1P5) antagonist assay Set 2.; assay type: functional
# [8] = molecular target: T1, Sphingosine 1-phosphate receptor 4; assay: Late-stage fluorescence-based dose-response cell-based counterscreen assay to identify agonists of the Sphingosine 1-Phosphate Receptor 4 (S1P4): inhibition by S1P4-selective antagonist 0.4 nM.; assay type: functional
# [9] = molecular target: T1, Sphingosine 1-phosphate receptor 4; assay: as §1; assay type: functional; remark: listed apart in the source
# [10] = molecular target: T3, Sphingosine 1-phosphate receptor 1 (Homo sapiens, UniProt P21453); assay: Late-stage fluorescence-based dose-response cell-based counterscreen assay to identify agonists of the Sphingosine 1-Phosphate Receptor 4 (S1P4): Sphingosine 1-Phosphate Receptor 1 (S1P1) antagonist assay.; assay type: functional
# [11] = molecular target: T1, Sphingosine 1-phosphate receptor 4; assay: Late-stage fluorescence-based dose-response cell-based counterscreen assay to identify agonists of the Sphingosine 1-Phosphate Receptor 4 (S1P4): inhibition by S1P4-selective antagonist 33 nM.; assay type: functional
# [12] = molecular target: T4, Sphingosine 1-phosphate receptor 3 (Homo sapiens, UniProt Q99500); assay: Late-stage fluorescence-based dose-response cell-based counterscreen assay to identify agonists of the Sphingosine 1-Phosphate Receptor 4 (S1P4): Sphingosine 1-Phosphate Receptor 3 (S1P3) agonist assay Set 2.; assay type: functional
# [13] = molecular target: T1, Sphingosine 1-phosphate receptor 4; assay: Late-stage fluorescence-based dose-response cell-based counterscreen assay to identify agonists of the Sphingosine 1-Phosphate Receptor 4 (S1P4): inhibition by S1P4-selective antagonist 11 nM.; assay type: functional
# [14] = molecular target: T3, Sphingosine 1-phosphate receptor 1; assay: Late-stage fluorescence-based dose-response cell-based counterscreen assay to identify agonists of the Sphingosine 1-Phosphate Receptor 4 (S1P4): Sphingosine 1-Phosphate Receptor 1 (S1P1) agonist assay Set 2.; assay type: functional
# [15] = molecular target: T1, Sphingosine 1-phosphate receptor 4; assay: Late-stage fluorescence dose-response cell-based counterscreen assay to identify agonists of the Sphingosine 1-Phosphate Receptor 4 (S1P4): Sphingosine 1-Phosphate Receptor 4 (S1P4) antagonist assay Set 2.; assay type: functional
# [16] = molecular target: T4, Sphingosine 1-phosphate receptor 3; assay: Late-stage fluorescence-based dose-response cell-based counterscreen assay to identify agonists of the Sphingosine 1-Phosphate Receptor 4 (S1P4): Sphingosine 1-Phosphate Receptor 3 (S1P3) antagonist assay Set 2.; assay type: functional
# [17] = molecular target: T1, Sphingosine 1-phosphate receptor 4; assay: Late stage fluorescence dose response cell-based screening assay for antagonists of the Sphingosine 1-Phosphate Receptor 4 (S1P4). [Related pubchem assays: 1524 (Confirmation screen (S1P4 antagonists).), 1510 (Primary screen (S1P4 antagonists).), 1853 (Summary AID (S1P4 antagonists).), 1692 (Dose response screen (S1P4 antagonists).)]; assay type: functional
# [18] = cAMP pathway inhibition in counterscreen cell line – TR-FRET cAMP detection, counter-screen for MC4R biased antagonist project, dose response (AID 602305); assay type: functional, cell-based;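 also: U2OS cells stimulated with forskolin near its EC80 as the cAMP inducer; potency is for inhibition of forskolin-stimulated cAMP signaling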
# Protein RecA = molecular target: T5, Protein RecA (Mycobacterium tuberculosis, UniProt P9WHJ3); assay: Fluorescence Cell-Free Homogeneous Dose Retest to Identify Inhibitors of RecA-Intein Splicing Activity. [Related pubchem assays (depositor defined):AID2097, AID2223, AID489010, AID492950]; assay type: functional
# T5 sequence (P9WHJ3 whole entry): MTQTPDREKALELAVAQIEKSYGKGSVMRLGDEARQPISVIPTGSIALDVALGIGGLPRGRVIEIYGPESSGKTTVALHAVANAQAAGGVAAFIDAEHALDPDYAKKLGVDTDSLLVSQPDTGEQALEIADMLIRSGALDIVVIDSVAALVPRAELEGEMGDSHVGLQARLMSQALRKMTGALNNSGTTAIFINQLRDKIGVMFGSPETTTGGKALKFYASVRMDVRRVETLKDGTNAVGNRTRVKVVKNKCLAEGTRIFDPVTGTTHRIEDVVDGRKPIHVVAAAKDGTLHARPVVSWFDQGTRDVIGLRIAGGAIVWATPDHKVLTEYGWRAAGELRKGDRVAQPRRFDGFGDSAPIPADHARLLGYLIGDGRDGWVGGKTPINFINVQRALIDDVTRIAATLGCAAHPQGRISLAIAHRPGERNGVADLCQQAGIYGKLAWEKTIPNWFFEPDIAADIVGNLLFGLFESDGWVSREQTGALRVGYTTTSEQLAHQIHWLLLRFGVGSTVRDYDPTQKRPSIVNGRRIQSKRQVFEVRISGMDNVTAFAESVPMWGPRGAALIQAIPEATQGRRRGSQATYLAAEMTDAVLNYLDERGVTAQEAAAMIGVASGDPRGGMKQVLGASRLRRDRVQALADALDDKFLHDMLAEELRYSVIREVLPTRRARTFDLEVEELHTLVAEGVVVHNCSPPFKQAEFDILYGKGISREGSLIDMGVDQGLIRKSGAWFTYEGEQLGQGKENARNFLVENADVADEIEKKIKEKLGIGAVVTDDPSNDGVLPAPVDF
# Melanocortin receptor 4 = Melanocortin receptor 4 (Homo sapiens, UniProt P32245); assay: inhibitors of MC4R cAMP signaling – cell-based, TR-FRET, biased antagonists, dose response (AID 602298); assay type: functional;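 also: antagonist potency against agonist-stimulated cAMP production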
# [19] = Luminescent dose response cell-based high throughput screening assay for inhibitors of the Janus kinase 2 mutant JAK2V617F. [Related pubchem assays: 1446 (Primary screen.), 1521 (Confirmation assay.), 1486 (Counter screen.)]; assay type: functional
# [20] = molecular target: T6, Heat shock factor protein 1 (Mus musculus, UniProt P38532); assay: enhancement of HSF1-driven luciferase signal – cell-based, NIH3T3, luminescence, dose retest, confirmation (AID 435004); assay type: functional;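 also: stress induced by proteasome inhibitor MG132 added 30 min after compound; luciferase reporter driven by HSF1 response element in NIH3T3 cells; actives raise luminescence as potentiators of the MG132 stress response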
# T6 sequence (P38532 whole entry): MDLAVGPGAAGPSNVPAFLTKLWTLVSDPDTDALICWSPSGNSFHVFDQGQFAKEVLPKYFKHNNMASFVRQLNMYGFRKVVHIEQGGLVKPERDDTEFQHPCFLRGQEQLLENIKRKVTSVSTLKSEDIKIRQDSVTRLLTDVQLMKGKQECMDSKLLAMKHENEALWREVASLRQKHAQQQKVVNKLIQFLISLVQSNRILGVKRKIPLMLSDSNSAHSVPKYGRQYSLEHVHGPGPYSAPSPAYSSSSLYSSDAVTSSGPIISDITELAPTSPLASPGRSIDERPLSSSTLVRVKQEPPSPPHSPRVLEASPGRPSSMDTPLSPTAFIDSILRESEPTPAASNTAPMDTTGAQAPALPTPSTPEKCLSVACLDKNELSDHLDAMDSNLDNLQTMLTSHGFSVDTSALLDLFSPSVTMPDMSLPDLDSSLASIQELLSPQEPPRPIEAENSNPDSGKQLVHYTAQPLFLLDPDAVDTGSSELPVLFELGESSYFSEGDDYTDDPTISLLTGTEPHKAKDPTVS
# [21] = molecular target: T1, Sphingosine 1-phosphate receptor 4; assay: Fluorescence dose response cell-based high throughput screening assay for antagonists of the Sphingosine 1-Phosphate Receptor 4 (S1P4). [Related pubchem assays: 1524 (Confirmation in triplicates.), 1510 (Primary screen.)]; assay type: functional
# Fatty acid synthase [22] = molecular target: T7, Fatty acid synthase (Homo sapiens, UniProt P49327); assay: inhibition of human FAS-TE enzyme activity – biochemical, endpoint fluorescence intensity, uHTS hits, dose response (AID 624327); assay type: functional;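 also: fluorescence from hydrolysis of an O-methyl fluorescein acyl ester substrate by the enzyme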
# [23] = viability loss of HPDE-C7K cells – cell-based, fluorescence, HTS, primary screen (AID 431); assay type: functional; settings: Homo sapiens
# [24] = molecular target: T8, Replicative DNA helicase DnaB (Mycobacterium tuberculosis, UniProt P9WMR3); assay: DnaB intein splicing inhibitors, dose response, biochemical, cell-free fluorescence (AID 449749); assay type: functional
# T8 sequence (P9WMR3 whole entry): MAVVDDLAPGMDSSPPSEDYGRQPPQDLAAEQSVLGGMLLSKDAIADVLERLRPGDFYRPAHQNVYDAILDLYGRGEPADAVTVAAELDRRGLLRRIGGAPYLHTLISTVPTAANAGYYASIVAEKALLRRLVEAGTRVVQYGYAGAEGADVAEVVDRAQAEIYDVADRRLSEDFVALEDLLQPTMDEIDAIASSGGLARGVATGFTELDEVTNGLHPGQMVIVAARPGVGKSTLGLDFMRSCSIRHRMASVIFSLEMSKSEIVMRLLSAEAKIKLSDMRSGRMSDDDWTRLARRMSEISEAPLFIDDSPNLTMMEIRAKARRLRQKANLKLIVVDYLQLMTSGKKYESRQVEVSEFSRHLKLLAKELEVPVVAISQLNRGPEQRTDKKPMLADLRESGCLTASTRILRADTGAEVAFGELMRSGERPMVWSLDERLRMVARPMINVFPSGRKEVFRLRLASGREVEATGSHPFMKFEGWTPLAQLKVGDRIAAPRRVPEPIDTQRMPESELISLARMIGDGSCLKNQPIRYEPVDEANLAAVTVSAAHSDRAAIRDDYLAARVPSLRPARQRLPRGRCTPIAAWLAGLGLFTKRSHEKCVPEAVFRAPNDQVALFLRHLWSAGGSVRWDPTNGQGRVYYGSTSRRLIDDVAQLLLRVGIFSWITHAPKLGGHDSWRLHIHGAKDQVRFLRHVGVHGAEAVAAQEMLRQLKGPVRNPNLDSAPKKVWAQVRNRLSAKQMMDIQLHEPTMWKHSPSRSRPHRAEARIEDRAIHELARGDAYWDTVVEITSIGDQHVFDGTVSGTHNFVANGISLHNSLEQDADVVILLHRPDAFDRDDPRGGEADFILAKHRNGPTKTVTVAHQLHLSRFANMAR
# Fatty acid synthase [25] = molecular target: T7, Fatty acid synthase; assay: inhibition of human FAS-TE enzyme activity – biochemical, kinetic fluorescence intensity, dose response (AID 624326); assay type: functional;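 also: rate of fluorescence rise from hydrolysis of a fluorogenic O-methyl fluorescein ester substrate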
# [26] = molecular target: T3, Sphingosine 1-phosphate receptor 1; assay type: functional
# [27] = HPDE-C7 pancreatic duct cell viability loss – fluorescence, HTS (AID 430); assay type: functional, cell-based; settings: Homo sapiens
# [28] = reduced cellular PGC1a acetyl-lysine signal – cell-based, cherry-picked samples, dose response (AID 720514); assay type: functional;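 also: potency may reflect raised or lowered acetylation signal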
# T3 sequence (P21453 whole entry): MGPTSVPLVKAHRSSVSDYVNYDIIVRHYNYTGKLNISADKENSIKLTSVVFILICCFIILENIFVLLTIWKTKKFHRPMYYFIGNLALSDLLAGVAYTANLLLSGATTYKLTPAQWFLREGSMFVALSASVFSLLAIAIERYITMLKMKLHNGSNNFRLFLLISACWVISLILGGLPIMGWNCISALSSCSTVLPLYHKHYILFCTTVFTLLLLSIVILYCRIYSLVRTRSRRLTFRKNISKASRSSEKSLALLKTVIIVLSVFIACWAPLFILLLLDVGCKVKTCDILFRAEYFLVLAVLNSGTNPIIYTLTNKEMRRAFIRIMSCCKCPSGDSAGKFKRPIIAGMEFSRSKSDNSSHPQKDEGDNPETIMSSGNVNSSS
# T7 sequence (P49327 whole entry): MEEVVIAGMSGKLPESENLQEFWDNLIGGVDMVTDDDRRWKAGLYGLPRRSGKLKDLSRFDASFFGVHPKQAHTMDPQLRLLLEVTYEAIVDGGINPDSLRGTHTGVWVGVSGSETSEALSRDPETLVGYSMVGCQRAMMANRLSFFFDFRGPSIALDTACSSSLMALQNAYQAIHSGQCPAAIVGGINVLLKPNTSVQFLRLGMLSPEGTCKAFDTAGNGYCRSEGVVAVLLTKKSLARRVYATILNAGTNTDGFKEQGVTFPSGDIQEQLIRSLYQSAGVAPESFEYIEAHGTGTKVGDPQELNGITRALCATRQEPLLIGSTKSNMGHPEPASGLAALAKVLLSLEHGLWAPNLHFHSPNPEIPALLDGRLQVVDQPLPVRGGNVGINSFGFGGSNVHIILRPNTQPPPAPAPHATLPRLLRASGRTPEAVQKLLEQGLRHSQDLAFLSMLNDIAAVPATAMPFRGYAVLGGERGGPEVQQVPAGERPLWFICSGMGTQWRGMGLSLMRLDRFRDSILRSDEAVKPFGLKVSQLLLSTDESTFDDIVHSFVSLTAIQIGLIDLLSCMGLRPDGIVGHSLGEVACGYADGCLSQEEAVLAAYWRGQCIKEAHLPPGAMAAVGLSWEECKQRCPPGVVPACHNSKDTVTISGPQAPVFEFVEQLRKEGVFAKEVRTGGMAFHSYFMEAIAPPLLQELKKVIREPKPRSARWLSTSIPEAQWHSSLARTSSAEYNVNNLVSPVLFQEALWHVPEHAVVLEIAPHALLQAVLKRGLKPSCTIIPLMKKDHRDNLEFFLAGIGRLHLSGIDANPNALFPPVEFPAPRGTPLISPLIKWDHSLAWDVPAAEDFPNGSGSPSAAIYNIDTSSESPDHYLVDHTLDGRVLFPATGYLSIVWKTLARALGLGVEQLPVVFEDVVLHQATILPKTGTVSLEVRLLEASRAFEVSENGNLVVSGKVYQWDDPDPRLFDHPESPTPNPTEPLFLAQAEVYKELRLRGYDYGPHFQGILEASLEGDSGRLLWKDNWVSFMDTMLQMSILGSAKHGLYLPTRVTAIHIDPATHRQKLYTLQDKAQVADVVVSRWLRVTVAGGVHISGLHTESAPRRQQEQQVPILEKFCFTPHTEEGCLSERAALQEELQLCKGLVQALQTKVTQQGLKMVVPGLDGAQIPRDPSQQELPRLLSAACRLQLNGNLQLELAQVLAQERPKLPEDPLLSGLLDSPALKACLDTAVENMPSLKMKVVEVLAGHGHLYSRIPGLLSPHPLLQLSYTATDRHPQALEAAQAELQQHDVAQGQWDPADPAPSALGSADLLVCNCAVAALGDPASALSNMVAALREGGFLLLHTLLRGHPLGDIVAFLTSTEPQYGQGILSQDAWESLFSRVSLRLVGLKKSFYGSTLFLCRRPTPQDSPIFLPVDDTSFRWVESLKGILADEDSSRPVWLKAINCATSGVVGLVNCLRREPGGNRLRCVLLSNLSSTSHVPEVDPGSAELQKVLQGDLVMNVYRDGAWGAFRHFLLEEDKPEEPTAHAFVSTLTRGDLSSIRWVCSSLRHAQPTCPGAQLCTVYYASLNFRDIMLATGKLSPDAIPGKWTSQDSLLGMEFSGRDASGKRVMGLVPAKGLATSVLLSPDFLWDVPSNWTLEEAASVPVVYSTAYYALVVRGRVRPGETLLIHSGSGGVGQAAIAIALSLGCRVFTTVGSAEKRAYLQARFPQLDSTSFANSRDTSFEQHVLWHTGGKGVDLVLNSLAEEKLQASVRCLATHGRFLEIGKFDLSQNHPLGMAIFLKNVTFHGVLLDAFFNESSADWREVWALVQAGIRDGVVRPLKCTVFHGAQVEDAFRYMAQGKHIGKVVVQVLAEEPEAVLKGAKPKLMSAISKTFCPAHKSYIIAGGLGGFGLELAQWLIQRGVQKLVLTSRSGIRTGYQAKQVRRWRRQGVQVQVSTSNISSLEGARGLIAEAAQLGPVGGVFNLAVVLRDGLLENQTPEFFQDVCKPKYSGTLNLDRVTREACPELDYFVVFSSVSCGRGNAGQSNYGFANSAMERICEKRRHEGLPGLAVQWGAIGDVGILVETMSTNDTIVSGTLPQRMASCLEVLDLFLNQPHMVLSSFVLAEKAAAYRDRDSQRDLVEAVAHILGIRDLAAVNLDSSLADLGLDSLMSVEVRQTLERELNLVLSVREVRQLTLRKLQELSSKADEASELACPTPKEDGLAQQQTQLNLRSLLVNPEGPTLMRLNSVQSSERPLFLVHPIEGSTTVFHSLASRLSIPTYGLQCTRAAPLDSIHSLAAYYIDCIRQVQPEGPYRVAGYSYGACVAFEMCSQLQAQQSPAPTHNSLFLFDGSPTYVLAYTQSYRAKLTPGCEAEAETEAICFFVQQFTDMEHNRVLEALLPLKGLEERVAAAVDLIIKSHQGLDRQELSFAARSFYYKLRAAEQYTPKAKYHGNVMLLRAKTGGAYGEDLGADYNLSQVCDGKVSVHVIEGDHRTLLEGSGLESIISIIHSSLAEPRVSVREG
# T2 sequence (O95136 whole entry): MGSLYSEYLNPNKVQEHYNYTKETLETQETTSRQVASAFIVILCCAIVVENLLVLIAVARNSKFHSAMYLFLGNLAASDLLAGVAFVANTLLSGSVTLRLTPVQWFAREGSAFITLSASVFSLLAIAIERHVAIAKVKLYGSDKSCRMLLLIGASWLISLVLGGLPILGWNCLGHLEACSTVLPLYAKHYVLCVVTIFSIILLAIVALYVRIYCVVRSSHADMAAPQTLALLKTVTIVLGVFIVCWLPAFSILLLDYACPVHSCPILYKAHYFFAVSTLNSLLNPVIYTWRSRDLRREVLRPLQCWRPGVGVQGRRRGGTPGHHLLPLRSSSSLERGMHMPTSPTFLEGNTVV
# T4 sequence (Q99500 whole entry): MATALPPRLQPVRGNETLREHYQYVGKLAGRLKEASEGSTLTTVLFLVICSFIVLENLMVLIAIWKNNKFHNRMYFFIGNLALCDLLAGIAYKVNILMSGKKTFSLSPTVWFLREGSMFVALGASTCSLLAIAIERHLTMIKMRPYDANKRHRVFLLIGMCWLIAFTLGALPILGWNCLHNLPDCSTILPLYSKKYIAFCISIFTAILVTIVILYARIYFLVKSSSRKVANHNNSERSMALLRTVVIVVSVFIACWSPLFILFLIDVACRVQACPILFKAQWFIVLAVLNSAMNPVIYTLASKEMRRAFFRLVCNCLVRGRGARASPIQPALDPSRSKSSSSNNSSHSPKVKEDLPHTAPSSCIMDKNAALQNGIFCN
# Sequence of Sphingosine 1-phosphate receptor 5 (Q9H228 whole entry): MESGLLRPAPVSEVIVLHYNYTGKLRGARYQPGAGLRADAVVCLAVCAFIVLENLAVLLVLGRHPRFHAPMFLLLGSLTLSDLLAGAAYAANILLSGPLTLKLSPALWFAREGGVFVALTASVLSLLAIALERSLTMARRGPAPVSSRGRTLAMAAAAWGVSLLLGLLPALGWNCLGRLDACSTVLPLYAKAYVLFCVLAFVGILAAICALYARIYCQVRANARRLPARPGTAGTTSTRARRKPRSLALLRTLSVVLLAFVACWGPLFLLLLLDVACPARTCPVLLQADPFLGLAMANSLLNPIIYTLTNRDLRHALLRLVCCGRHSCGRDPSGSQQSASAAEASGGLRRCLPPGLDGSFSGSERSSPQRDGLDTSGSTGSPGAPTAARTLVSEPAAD
# Sequence of Melanocortin receptor 4 (P32245 whole entry): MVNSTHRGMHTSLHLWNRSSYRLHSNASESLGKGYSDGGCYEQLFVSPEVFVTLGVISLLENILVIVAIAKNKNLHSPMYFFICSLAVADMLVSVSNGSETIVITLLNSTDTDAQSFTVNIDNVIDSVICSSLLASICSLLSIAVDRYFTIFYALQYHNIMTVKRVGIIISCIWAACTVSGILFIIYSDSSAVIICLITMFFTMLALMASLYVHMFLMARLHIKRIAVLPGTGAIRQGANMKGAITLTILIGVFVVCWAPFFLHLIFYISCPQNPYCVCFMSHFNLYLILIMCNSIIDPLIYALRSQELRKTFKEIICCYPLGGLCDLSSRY
compound,measurement,setting,value
COCC/N=C1\S/C(=C\c2cc(C)n(-c3ccc(F)cc3F)c2C)C(=O)N1C,EC50,[1],0.0154 µM (active)
same,EC50,[2],> 25 µM (inactive)
same,CC50,[3],> 10 µM (inactive)
same,IC50,[4],6.76 µM (active)
same,EC50,[5],0.173 µM (active)
same,EC50,[6],> 3.3 µM (inactive)
same,IC50,[7],> 25 µM (inactive)
same,EC50,[8],0.04 µM (active)
same,EC50,[9],> 3.3 µM (inactive)
same,IC50,[10],> 25 µM (inactive)
same,EC50,[11],> 3.3 µM (inactive)
same,EC50,[12],> 25 µM (inactive)
same,EC50,[13],> 3.3 µM (inactive)
same,EC50,[14],> 25 µM (inactive)
same,IC50,[15],> 25 µM (inactive)
same,IC50,[16],~8.9 µM (active)
Cc1ccccc1CS(=O)(=O)c1nnc([C@H](CC(C)C)NC(=O)OC(C)(C)C)o1,IC50,[17],2.89 µM (not active)
same,IC50,[18],> 64.6 µM (inactive)
same,EC50,Protein RecA,11.6 µM (active)
same,IC50,Melanocortin receptor 4,> 64.6 µM (inactive)
same,IC50,[19],0.632 µM (active)
same,EC50,[20],> 260 µM (inactive)
same,IC50,[21],1.2 µM (active)
same,IC50,Fatty acid synthase [22],12.3 µM (active)
same,EC50,[23],11.9 µM (active)
same,AC50,[24],93.7 µM (active)
same,IC50,Fatty acid synthase [25],7.36 µM (active)
same,IC50,[26],38.9 µM (not active)
same,EC50,[27],8.56 µM (active)
same,AC50,[28],16 µM (active)

# From ChEMBL document CHEMBL1201862, “PubChem BioAssay data set” (2004)
